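Tested at 5 concentrations; 48 h exposure; 96-well plates; endpoints linearly interpolated, else capped at highest concentration. GI50 is the concentration that inhibits growth by half.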 Activity calls are given as the source filed them. No stated cut-off is given here; in the data, active = GI50 up to about 1.1 µM and inactive = higher.
What was measured:
Test in all cases: NCI-60 cell line screen, 48 h
[1] = system: A498
[2] = system: ACHN
[3] = system: BT-549
[4] = system: CAKI-1
[5] = system: COLO 205
[6] = system: EKVX
[7] = system: HCT-116
[8] = system: HT-29
[9] = system: IGROV-1
[10] = system: KM12
[11] = system: MCF7
[12] = system: MDA-MB-435
[13] = system: NCI-H23
[14] = system: NCI/ADR-RES
[15] = system: PC-3
[16] = system: SF-295
[17] = system: SK-MEL-2
[18] = system: SN12C
[19] = system: SNB-19
[20] = system: T47D

| Compound | GI50 [1] | GI50 [2] | GI50 [3] | GI50 [4] | GI50 [5] | GI50 [6] | GI50 [7] | GI50 [8] | GI50 [9] | GI50 [10] | GI50 [11] | GI50 [12] | GI50 [13] | GI50 [14] | GI50 [15] | GI50 [16] | GI50 [17] | GI50 [18] | GI50 [19] | GI50 [20] |
| --- | --- | --- | --- | --- | --- | --- | --- | --- | --- | --- | --- | --- | --- | --- | --- | --- | --- | --- | --- | --- |
| NS(=O)(=O)c1ccc(/N=N/c2ccc(O)cc2)cc1 | > 100 µM (inactive) | 31.8 µM (inactive) | 10.5 µM (inactive) | 20.9 µM (inactive) | 46.3 µM (inactive) | 20.7 µM (inactive) | 37.3 µM (inactive) | 50.2 µM (inactive) | 70 µM (inactive) | 18.6 µM (inactive) | 39.4 µM (inactive) | 11.3 µM (inactive) | 55.6 µM (inactive) | 26.8 µM (inactive) | 66.7 µM (inactive) | 29.9 µM (inactive) | 32.7 µM (inactive) | 64 µM (inactive) | 83.2 µM (inactive) | 31.3 µM (inactive) |
| C/C(=N\NC(=S)N1CCCCCCCCCCCC1)c1ccccn1 | 0.372 µM (active) | 0.215 µM (active) | 0.0991 µM (active) | 0.246 µM (active) | 0.0522 µM (active) | 0.0514 µM (active) | 0.447 µM (active) | 0.0356 µM (active) | 0.212 µM (active) | 0.102 µM (active) | 0.0865 µM (active) | 0.15 µM (active) | 0.379 µM (active) | 0.778 µM (active) | 0.107 µM (active) | 0.324 µM (active) | 0.299 µM (active) | 0.238 µM (active) | 0.659 µM (active) | 0.233 µM (active) |
| COc1ccc(N(CC(=O)O)N=O)cc1 | > 100 µM (inactive) | > 100 µM (inactive) | > 100 µM (inactive) | > 100 µM (inactive) | > 100 µM (inactive) | > 100 µM (inactive) | > 100 µM (inactive) | > 100 µM (inactive) | > 100 µM (inactive) | > 100 µM (inactive) | > 100 µM (inactive) | > 100 µM (inactive) | > 100 µM (inactive) | > 100 µM (inactive) | > 100 µM (inactive) | > 100 µM (inactive) | > 100 µM (inactive) | > 100 µM (inactive) | > 100 µM (inactive) | > 100 µM (inactive) |
| CC1=CC(=O)N(n2c(Cc3ccccc3)n[nH]c2=O)C1=O | > 100 µM (inactive) | > 100 µM (inactive) | > 100 µM (inactive) | > 100 µM (inactive) | > 100 µM (inactive) | > 100 µM (inactive) | > 100 µM (inactive) | > 100 µM (inactive) | > 100 µM (inactive) | > 100 µM (inactive) | > 100 µM (inactive) | > 100 µM (inactive) | > 100 µM (inactive) | > 100 µM (inactive) | 93.5 µM (inactive) | > 100 µM (inactive) | > 100 µM (inactive) | > 100 µM (inactive) | > 100 µM (inactive) | 98.4 µM (inactive) |
| COC(=O)[C@]12CCC(C)(C)C[C@H]1C1=CC[C@@H]3[C@@]4(C)CC[C@H](OC5OC(CO)C(O)C(O)C5OC5OC(CO)C(O)C(O)C5O)C(C)(C)[C@@H]4CC[C@@]3(C)[C@]1(C)CC2 (stereo not given in full) | 11.3 µM (inactive) | 7.55 µM (inactive) | 17.4 µM (inactive) | 8.81 µM (inactive) | 3.09 µM (inactive) | 11.9 µM (inactive) | 5.41 µM (inactive) | 10.4 µM (inactive) | 14.4 µM (inactive) | 12.6 µM (inactive) | 12 µM (inactive) | 7.6 µM (inactive) | 7.08 µM (inactive) | 14.5 µM (inactive) | 3.89 µM (inactive) | 14.2 µM (inactive) | 10.7 µM (inactive) | 4.62 µM (inactive) | 14.3 µM (inactive) | 18.3 µM (inactive) |
| Cc1ccc(/N=N/C(=N/c2ccccc2)c2ccc(N(CCC#N)CCC#N)cc2)cc1 | 45.4 µM (inactive) | 46 µM (inactive) | 13.2 µM (inactive) | 55.5 µM (inactive) | 21.7 µM (inactive) | 30.6 µM (inactive) | 32.9 µM (inactive) | 30.9 µM (inactive) | 20.3 µM (inactive) | 24.3 µM (inactive) | 22.1 µM (inactive) | 38 µM (inactive) | 18.3 µM (inactive) | > 100 µM (inactive) | 17.9 µM (inactive) | 27.2 µM (inactive) | 19.7 µM (inactive) | 31.9 µM (inactive) | 37.5 µM (inactive) | 23.7 µM (inactive) |
| CC(C)(C)N1CSC(=S)N(Cc2ccco2)C1 | 13.3 µM (inactive) | 3.27 µM (inactive) | 2.79 µM (inactive) | 2.83 µM (inactive) | 3.65 µM (inactive) | 14.4 µM (inactive) | 3.81 µM (inactive) | 3.27 µM (inactive) | 2.55 µM (inactive) | 2.7 µM (inactive) | 0.52 µM (active) | 1.76 µM (inactive) | 2.37 µM (inactive) | 4.11 µM (inactive) | 3.35 µM (inactive) | 15.8 µM (inactive) | 3.55 µM (inactive) | 4.35 µM (inactive) | 3.91 µM (inactive) | 5.64 µM (inactive) |
| CCc1cn(C2CC(CO)C(CO)S2)c(=O)[nH]c1=O (stereo not given) | > 100 µM (inactive) | > 100 µM (inactive) | > 100 µM (inactive) | > 100 µM (inactive) | > 100 µM (inactive) | > 100 µM (inactive) | > 100 µM (inactive) | > 100 µM (inactive) | > 100 µM (inactive) | > 100 µM (inactive) | > 100 µM (inactive) | > 100 µM (inactive) | > 100 µM (inactive) | > 100 µM (inactive) | > 100 µM (inactive) | > 100 µM (inactive) | > 100 µM (inactive) | > 100 µM (inactive) | > 100 µM (inactive) | > 100 µM (inactive) |
| O=C1/C(=C(/Br)I)c2ccccc2-c2ccccc21 | 16.4 µM (inactive) | 7.26 µM (inactive) | 7.03 µM (inactive) | 5.57 µM (inactive) | 2.04 µM (inactive) | 18 µM (inactive) | 7.85 µM (inactive) | 6.55 µM (inactive) | 13.2 µM (inactive) | 14.2 µM (inactive) | 8.85 µM (inactive) | 8.51 µM (inactive) | 18.1 µM (inactive) | 9.02 µM (inactive) | 8.34 µM (inactive) | 17 µM (inactive) | 8.73 µM (inactive) | 16.2 µM (inactive) | 13.9 µM (inactive) | 11.9 µM (inactive) |
| C[C@@H](CC(=O)O)OC1OC(COC(=O)C(C)(C)C)C(OC(=O)C(C)(C)C)C(OC(=O)C(C)(C)C)C1OC(=O)C(C)(C)C (stereo not given in full) | > 100 µM (inactive) | 22.6 µM (inactive) | 57 µM (inactive) | 62.2 µM (inactive) | 32.8 µM (inactive) | 93.5 µM (inactive) | 47.5 µM (inactive) | 39 µM (inactive) | 72.3 µM (inactive) | 45.7 µM (inactive) | 41.2 µM (inactive) | 53.3 µM (inactive) | 27.2 µM (inactive) | > 100 µM (inactive) | 46.9 µM (inactive) | 50.5 µM (inactive) | 49 µM (inactive) | 48.2 µM (inactive) | 28.2 µM (inactive) | 45.9 µM (inactive) |
| COC(=O)Nc1cc(OCCCOC(C)=O)c2[nH]c(C(=O)OC)cc2c1C[C@H](O)CO | > 100 µM (inactive) | > 100 µM (inactive) | 54.7 µM (inactive) | > 100 µM (inactive) | > 100 µM (inactive) | 72.1 µM (inactive) | > 100 µM (inactive) | > 100 µM (inactive) | 90.4 µM (inactive) | > 100 µM (inactive) | > 100 µM (inactive) | > 100 µM (inactive) | > 100 µM (inactive) | > 100 µM (inactive) | > 100 µM (inactive) | > 100 µM (inactive) | > 100 µM (inactive) | > 100 µM (inactive) | > 100 µM (inactive) | > 100 µM (inactive) |
| C=CCC(CCC(C)=O)(C(=O)OCC)C(=O)OCC | > 100 µM (inactive) | > 100 µM (inactive) | > 100 µM (inactive) | > 100 µM (inactive) | > 100 µM (inactive) | > 100 µM (inactive) | > 100 µM (inactive) | > 100 µM (inactive) | > 100 µM (inactive) | > 100 µM (inactive) | > 100 µM (inactive) | > 100 µM (inactive) | > 100 µM (inactive) | > 100 µM (inactive) | > 100 µM (inactive) | > 100 µM (inactive) | > 100 µM (inactive) | > 100 µM (inactive) | > 100 µM (inactive) | > 100 µM (inactive) |
| C[C@]12CCC3C4=C(CCC3C1CCC2=O)C(=O)[C@H]1O[C@H]1C4=O (stereo not given in full) | 17.1 µM (inactive) | 2.57 µM (inactive) | 1.98 µM (inactive) | 0.275 µM (active) | 4.33 µM (inactive) | 14.3 µM (inactive) | 0.453 µM (active) | 1.36 µM (inactive) | 2.24 µM (inactive) | 5.43 µM (inactive) | 2.18 µM (inactive) | 11.8 µM (inactive) | 2.77 µM (inactive) | 4.02 µM (inactive) | 4.18 µM (inactive) | 15.3 µM (inactive) | 12.2 µM (inactive) | 2.64 µM (inactive) | 15.6 µM (inactive) | 0.61 µM (active) |
